From patent publication US8906432B2, “Compositions comprising an NFκB-inhibitor and a non-retinoid collagen promoter” (Johnson & Johnson Consumer Companies, Inc., priority 2009, dated 2014)

Columns and labels:
Collagen 1A promoter = experiment: COLLAGEN PROMOTER ASSAY (Collagen 1A promoter-luciferase reporter in H9C2 cells); assay type: cell-based, rat; details: 1 ug/ml of each active (on active basis), transfected H9C2 cells, 24 hours; for Percent Change Over Vehicle (collagen promotion): vehicle DMSO 0.01%
Protocol: Suitable non-retinoid collagen promoters may be determined, for example, using the COLLAGEN PROMOTER ASSAY. The COLLAGEN PROMOTER ASSAY is performed as follows. Rat cardiac myoblasts H9C2, which may be purchased from ATCC (Manassas, Va.), are used. Cultures are maintained in Dulbecco's modified Eagle's medium (DMEM, Invitrogen Life Technologies, Carlsbad, Calif.) supplemented with 10% fetal bovine serum, 2 mM glutamine, 100 units/ml penicillin, and 50 ug/ml streptomycin (Invitrogen life technologies, Carlsbad, Calif.). Cell cultures are transiently transfected with the Collagen 1A promoter-luciferase reporter construct, driving the firefly luciferase gene, which may obtained for example from PREMAS Biotech Pvt. Ltd (Haryana, India). In all transfections, a construct with the thymidine kinase promoter and the Renilla luciferase reporter gene (pRL-TK, Promega, Madison, Wis.) is included as an internal control. Cells grown in 48-well plates are transfected with 0.45 ug total DNA per well using Lipofectamine 2000 (Invitrogen life technologies, Carlsbad, Calif.). One day after transfection, cells are treated with agents at the indicated concentrations for approximately 24 hours before they are lysed for luciferase assays, using Dual-Luciferase Reporter System from Promega (Madison, Wis.), following manufacturer's protocol. The firefly luciferase activity is measured first (representing collagen promoter activity), followed by the renilla luciferase (internal control), using luminometer LMAX, from Molecular Devices (Sunnyvale, Calif.). The ratio of these two luciferase activities (RLU) is used to evaluate the activity of each promoter.
The COLLAGEN PROMOTER ASSAY was performed on the following compounds: Tanacetum parthenium (parthenolide-free feverfew extract from Integrated Botanical Technologies of Ossining, N.Y.) and 4-hexylresorcinol (Synovea HR, from Sytheon Ltd). The compounds were diluted in cell culture media (DMEM Media of Invitrogen, San Diego Calif.) to the concentration of “active” extract as indicated in Table 3 below. […]

NFκB = experiment: NFκB-INHIBITION TEST (NF-kB gene reporter, TNFα-stimulated FB293 cells, luciferase); assay type: cell-based; details: Homo sapiens, 24 h; series of substituted resorcinols, each 10 ug/ml (Table 2); read-out: Percent NF-kB Inhibition
Protocol: The NFκB-INHIBITION TEST is conducted in the following manner. FB293 cells, a stable transfected human epithelial cell line containing the gene reporter for NF-kB are used. They may be obtained from, e.g., Panomics (Fremont, Calif.). FB293 are plated at a density of 5×10^4 cells/mL in a suitable medium, e.g., Dulbecco's modified Eagle's medium (DMEM) supplemented with 10% fetal bovine serum (Invitrogen, San Diego, Calif.). The FB293 cells are stimulated with 100 ng/mL of Tumor Necrosis Factor-α(TNFα, available from Sigma-Aldrich of St Louis, Mo.) in the presence of the test sample. Separately, a control sample is tested wherein no test sample is applied. Following a 24-hour incubation at 37° C. with 5% CO2, cells are lysed with 40 μl of reporter lysis buffer (Promega, Madison, Wis.). A […] aliquot of the lysate is assayed using a luciferase assay kit (Promega) and counted for 10 s in a Lmax luminometer (Molecular Devices, Sunnyvale, Calif.) with the data represented as the relative light unit/second. Percent NFκB Inhibition of the test sample is calculated as: NFκB Inhibition=[1−(Lsample/Lcontrol)]*100 where Lsample is the luminescence of the sample and Lcontrol is the luminescence of the control. […]

| Compound | Percent Change Over Vehicle (collagen promotion) (Collagen 1A promoter) | Percent Change Over Vehicle (collagen promotion) (Collagen 1A promoter; listed as 4-hexylresorcinol) | Collagen 1A Promoter Activity (Collagen 1A promoter; vehicle control = 1.00) | inhibition at 10 µg/mL (NFκB) |
| --- | --- | --- | --- | --- |
| CCCCCCc1ccc(O)cc1O [4-Hexylresorcinol] | −3% | −3% | 0.97 ± 0.17 |  |
| CCCCCCCCCCCC1c2cc(c(O)cc2O)C(CCCCCCCCCCC)c2cc(c(O)cc2O)[C@H](CCCCCCCCCCC)c2cc(c(O)cc2O)[C@H](CCCCCCCCCCC)c2cc1c(O)cc2O (stereo partly shown) [C-Undecylcalix[4]-resorcinarene] |  |  |  | 4.87% |
